Experiment [1] has as its target Vascular endothelial growth factor receptor 1 (Homo sapiens) (UniProt P17948). The experiment in a line: Selectivity interaction (Upstate Kinase Profiler service (Millipore)) EUB0000056c FLT1. Conditions: at 1 µM.
Experiment [2] deals with Serine/threonine-protein kinase PLK2 (Homo sapiens, UniProt Q9NYY3). The experiment is described as follows: Selectivity interaction (ProQinase) EUB0000171b PLK2.
The target in experiment [3] is T1, Tyrosine-protein kinase Tec (Homo sapiens) (UniProt P42680).
T1 sequence (whole entry): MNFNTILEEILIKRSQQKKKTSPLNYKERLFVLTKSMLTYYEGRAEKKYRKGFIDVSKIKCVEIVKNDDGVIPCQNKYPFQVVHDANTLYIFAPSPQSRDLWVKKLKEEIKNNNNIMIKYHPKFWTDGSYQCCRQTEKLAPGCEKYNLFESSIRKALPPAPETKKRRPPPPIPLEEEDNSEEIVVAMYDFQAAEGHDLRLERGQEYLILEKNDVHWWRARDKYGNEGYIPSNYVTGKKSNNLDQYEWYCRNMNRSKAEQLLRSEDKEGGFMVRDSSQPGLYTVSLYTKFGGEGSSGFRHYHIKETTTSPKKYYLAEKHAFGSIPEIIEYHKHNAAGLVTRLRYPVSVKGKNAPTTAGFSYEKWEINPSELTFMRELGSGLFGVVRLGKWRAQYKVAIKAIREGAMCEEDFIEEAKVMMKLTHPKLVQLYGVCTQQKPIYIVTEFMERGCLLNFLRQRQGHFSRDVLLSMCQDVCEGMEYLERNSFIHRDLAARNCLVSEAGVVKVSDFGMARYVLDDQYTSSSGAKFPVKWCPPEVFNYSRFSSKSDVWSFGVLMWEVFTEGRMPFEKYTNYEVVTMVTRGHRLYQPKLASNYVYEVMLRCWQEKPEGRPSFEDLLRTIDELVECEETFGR
The experiment is described as follows: Selectivity interaction (ProQinase) EUB0000171b TEC.

The target of experiment [4] is Mitogen-activated protein kinase 11 (Homo sapiens) (UniProt Q15759). The experiment is described as follows: Selectivity interaction (KinomeScan (DiscoverX)) EUB0001049a MAPK11. Conditions: at 1 µM.
Sequence of Mitogen-activated protein kinase 11 (Homo sapiens) (Q15759 whole entry, canonical isoform): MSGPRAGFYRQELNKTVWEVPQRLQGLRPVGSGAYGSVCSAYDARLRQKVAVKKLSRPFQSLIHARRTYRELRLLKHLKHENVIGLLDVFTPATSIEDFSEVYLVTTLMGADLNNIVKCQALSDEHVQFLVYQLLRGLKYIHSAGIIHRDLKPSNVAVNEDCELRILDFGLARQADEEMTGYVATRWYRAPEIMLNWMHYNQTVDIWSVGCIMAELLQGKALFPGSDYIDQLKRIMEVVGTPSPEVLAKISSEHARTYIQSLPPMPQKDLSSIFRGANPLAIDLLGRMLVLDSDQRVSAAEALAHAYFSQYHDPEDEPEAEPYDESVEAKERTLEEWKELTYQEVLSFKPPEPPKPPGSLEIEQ
Experiment [5] deals with Casein kinase I isoform gamma-1 (Homo sapiens) (UniProt Q9HCP0). The experiment in a line: Selectivity interaction (KinomeScan (DiscoverX)) EUB0000655a CSNK1G1. Conditions: at 10 µM.
Sequence of Casein kinase I isoform gamma-1 (Homo sapiens) (Q9HCP0 whole entry, looked up, canonical isoform): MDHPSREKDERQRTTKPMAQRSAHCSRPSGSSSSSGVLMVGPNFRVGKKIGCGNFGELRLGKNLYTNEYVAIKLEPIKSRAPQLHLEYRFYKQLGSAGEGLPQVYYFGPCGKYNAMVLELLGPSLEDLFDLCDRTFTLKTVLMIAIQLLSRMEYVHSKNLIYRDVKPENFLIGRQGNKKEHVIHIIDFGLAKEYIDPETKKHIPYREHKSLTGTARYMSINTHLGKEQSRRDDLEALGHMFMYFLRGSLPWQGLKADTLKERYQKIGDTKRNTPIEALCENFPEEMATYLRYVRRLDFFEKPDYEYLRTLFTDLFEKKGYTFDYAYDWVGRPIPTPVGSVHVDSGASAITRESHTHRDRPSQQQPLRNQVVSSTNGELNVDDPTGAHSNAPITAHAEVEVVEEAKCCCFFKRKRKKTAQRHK
In experiment [6] the target is T2, MAP/microtubule affinity-regulating kinase 4 (Homo sapiens) (UniProt Q96L34).
T2 sequence (whole entry): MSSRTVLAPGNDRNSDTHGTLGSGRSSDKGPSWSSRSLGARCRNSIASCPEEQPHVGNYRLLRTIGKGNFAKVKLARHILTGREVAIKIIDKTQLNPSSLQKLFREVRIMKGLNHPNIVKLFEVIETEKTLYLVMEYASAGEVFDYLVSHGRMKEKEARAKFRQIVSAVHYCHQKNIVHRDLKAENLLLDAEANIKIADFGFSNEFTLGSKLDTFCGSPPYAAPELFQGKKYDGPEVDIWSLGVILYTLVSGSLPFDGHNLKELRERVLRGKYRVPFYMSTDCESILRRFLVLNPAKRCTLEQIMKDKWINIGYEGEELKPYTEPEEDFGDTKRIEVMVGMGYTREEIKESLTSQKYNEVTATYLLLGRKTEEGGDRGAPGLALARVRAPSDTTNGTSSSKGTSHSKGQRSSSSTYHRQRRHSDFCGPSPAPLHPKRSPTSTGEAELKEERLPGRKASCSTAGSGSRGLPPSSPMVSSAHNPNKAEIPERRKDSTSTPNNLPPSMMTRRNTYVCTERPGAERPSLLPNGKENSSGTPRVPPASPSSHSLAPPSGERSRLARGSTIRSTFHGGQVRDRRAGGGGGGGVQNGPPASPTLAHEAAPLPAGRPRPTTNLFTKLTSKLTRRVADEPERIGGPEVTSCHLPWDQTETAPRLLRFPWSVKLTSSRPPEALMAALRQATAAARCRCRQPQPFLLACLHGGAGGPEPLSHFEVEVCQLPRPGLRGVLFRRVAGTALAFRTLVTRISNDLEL
The experiment in a line: Selectivity interaction (KinomeScan (DiscoverX)) EUB0000655a MARK4. Conditions: at 10 µM.

In experiment [7] the target is T3, Ephrin type-A receptor 3 (Homo sapiens) (UniProt P29320).
T3 sequence (whole entry): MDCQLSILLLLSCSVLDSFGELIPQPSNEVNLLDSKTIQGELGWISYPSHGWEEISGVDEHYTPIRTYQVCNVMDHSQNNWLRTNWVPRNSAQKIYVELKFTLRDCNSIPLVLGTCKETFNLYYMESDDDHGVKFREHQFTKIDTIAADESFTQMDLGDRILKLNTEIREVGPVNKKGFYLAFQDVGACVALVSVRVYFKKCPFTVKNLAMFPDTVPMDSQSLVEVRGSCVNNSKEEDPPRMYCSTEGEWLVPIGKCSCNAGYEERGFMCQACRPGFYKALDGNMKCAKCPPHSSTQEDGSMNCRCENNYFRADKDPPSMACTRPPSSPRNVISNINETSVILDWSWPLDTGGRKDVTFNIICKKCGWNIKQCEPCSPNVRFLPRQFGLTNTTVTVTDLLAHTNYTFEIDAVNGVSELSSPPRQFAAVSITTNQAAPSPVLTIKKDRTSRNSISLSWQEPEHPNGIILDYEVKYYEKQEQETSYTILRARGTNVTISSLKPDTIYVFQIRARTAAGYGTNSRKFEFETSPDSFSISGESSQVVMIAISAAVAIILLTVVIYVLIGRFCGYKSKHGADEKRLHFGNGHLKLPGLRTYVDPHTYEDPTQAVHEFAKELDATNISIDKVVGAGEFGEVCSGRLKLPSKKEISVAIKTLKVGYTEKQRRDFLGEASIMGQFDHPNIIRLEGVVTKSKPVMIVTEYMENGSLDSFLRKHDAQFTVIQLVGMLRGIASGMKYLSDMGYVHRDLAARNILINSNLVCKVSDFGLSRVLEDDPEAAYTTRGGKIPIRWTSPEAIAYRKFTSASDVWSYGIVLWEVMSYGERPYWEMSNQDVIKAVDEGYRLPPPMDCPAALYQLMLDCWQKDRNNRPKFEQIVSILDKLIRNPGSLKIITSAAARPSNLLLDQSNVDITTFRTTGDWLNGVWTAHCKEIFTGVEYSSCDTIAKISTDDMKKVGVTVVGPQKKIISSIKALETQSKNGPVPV
The experiment is described as follows: Selectivity interaction (Kinase panel (Invitrogen)) EUB0000639a EPHA3. To be noted: at 200 nM.

The target of experiment [8] is eIF-2-alpha kinase GCN2 (Homo sapiens) (UniProt Q9P2K8). The experiment in a line: Selectivity interaction (ActivX KiNativ screen (kinase selectivity in THP-1 cell lysates)) EUB0000639a EIF2AK4. The format is subcellular. To be noted: lysate, at 0.04 µM.
Sequence of eIF-2-alpha kinase GCN2 (Homo sapiens) (Q9P2K8 whole entry, the tested form may be a part): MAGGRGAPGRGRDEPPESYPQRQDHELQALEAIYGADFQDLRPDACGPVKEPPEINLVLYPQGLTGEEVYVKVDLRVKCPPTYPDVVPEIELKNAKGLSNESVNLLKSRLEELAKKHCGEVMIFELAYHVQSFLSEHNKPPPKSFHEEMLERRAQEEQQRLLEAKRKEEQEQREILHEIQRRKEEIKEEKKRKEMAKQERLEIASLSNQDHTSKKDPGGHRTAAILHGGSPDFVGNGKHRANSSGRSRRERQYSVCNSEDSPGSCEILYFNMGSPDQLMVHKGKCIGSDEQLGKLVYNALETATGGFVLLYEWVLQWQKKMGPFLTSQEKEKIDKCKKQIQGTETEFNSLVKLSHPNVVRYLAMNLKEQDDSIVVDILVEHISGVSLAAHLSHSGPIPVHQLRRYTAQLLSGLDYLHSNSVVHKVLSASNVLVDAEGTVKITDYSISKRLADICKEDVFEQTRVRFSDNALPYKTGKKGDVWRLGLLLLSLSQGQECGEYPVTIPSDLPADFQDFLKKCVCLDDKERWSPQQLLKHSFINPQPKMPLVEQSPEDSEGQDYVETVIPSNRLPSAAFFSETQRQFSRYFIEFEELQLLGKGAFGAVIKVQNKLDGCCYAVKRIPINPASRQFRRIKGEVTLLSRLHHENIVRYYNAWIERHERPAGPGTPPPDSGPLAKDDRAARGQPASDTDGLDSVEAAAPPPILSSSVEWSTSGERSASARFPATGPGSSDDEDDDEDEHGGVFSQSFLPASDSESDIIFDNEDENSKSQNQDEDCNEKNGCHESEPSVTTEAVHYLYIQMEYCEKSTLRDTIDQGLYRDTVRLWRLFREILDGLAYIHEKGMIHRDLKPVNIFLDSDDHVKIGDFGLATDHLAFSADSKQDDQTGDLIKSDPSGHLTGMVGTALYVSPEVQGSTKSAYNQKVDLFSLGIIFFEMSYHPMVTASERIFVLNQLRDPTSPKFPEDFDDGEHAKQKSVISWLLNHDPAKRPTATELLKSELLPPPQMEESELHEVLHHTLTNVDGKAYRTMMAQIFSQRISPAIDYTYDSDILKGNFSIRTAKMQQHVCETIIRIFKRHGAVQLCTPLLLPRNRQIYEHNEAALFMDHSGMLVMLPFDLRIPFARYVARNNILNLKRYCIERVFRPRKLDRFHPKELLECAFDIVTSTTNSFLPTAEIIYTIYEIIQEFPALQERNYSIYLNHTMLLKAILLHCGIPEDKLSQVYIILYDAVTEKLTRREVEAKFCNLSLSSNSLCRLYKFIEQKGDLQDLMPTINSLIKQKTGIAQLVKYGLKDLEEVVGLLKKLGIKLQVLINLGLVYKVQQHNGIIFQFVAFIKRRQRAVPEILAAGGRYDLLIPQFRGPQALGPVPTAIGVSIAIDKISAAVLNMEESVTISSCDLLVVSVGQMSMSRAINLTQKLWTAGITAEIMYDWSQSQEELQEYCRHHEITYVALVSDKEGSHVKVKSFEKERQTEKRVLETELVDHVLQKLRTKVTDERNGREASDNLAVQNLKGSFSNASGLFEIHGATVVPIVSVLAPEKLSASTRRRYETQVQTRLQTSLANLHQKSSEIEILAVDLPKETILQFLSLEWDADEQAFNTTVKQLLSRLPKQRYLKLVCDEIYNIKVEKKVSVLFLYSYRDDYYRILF
Experiment [9] addresses Phosphatidylinositol 4-phosphate 3-kinase C2 domain-containing subunit beta (Homo sapiens) (UniProt O00750). The experiment is described as follows: Selectivity interaction (KinomeScan (DiscoverX)) EUB0000229b PIK3C2B. Conditions: at 10 µM.
The target in experiment [10] is Tyrosine-protein kinase Lck (Homo sapiens, UniProt P06239). The experiment is described as follows: Selectivity interaction (KinomeScan (DiscoverX)) EUB0000595a LCK. Conditions: at 10 µM.
Sequence of Tyrosine-protein kinase Lck (P06239 2-509 limits assumed): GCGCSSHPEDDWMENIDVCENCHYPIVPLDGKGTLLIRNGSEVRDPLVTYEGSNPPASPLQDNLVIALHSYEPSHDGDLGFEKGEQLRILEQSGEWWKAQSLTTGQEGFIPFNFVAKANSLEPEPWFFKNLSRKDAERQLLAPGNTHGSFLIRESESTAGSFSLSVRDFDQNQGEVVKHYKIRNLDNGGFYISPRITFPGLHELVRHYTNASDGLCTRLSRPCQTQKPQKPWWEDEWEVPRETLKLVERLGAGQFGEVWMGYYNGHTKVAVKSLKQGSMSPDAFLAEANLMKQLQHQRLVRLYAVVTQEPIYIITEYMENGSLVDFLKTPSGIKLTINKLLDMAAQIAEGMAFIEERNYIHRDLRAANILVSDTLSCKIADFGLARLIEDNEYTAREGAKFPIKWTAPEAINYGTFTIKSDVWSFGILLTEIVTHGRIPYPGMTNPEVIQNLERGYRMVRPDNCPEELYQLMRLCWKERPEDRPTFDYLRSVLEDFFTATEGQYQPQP

From ChEMBL document CHEMBL5465560, “Selectivity Literature for EUbOPEN Chemogenomic Library” (2024) come the findings set out here.

Sequence of Serine/threonine-protein kinase PLK2 (Q9NYY3 whole entry, looked up): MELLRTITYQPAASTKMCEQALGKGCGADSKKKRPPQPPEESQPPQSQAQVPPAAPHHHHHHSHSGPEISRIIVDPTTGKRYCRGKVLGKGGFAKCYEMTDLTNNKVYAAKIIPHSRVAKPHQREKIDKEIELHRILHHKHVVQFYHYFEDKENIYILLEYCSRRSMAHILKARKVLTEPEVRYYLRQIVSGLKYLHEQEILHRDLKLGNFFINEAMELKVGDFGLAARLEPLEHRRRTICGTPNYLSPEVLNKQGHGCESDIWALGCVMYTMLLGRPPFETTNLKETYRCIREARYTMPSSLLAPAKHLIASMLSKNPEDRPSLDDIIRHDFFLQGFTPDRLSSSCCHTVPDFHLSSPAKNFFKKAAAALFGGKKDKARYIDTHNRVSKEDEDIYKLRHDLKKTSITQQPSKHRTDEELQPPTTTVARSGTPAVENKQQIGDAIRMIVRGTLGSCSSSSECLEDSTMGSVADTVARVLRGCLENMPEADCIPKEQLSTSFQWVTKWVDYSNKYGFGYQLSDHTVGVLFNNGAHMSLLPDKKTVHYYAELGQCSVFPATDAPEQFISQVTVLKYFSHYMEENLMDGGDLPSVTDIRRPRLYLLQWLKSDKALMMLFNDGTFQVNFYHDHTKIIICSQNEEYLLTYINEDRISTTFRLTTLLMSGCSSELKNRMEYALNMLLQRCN
Sequence of Vascular endothelial growth factor receptor 1 (Homo sapiens) (P17948 whole entry): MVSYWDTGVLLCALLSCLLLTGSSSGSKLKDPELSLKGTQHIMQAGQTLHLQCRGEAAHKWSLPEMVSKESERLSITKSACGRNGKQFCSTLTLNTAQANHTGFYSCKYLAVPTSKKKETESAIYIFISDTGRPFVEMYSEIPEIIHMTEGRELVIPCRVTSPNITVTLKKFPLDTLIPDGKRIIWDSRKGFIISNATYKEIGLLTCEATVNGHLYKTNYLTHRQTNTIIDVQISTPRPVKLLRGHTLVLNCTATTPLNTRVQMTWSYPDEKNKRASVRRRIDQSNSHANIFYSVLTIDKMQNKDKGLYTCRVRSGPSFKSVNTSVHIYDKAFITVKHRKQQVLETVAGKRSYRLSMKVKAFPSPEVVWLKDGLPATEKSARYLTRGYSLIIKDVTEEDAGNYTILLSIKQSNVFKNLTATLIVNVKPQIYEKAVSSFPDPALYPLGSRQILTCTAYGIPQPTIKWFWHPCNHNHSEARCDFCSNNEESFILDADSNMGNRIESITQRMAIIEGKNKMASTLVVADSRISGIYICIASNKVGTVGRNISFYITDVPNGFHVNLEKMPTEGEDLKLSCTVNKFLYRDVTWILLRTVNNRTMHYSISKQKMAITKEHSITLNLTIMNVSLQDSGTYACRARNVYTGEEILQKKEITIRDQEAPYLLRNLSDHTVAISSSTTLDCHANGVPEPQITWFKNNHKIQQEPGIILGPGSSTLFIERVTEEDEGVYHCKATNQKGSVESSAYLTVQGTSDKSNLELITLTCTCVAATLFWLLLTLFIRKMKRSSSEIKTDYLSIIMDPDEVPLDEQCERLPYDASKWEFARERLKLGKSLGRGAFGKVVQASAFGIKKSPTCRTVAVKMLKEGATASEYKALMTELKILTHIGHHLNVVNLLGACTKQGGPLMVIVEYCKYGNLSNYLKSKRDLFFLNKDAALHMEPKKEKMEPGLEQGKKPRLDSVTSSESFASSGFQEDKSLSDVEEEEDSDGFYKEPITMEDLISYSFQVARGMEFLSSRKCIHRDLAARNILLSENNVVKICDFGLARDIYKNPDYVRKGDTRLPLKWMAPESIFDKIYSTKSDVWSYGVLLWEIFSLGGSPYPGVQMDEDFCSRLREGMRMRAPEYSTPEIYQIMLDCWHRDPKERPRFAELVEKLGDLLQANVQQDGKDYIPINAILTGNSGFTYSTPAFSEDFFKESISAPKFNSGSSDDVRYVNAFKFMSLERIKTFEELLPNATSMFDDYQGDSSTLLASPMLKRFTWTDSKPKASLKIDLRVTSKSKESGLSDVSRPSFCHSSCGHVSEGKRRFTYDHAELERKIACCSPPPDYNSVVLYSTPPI

In turn, `Cc1ccc(-c2ccc3c(ccc4sc5c(c43)NC[C@@H](C)NC5=O)n2)cn1` gave a % of inhibition in [1] of 21%. Consider `C=CC(=O)Nc1cccc(C(=O)Nc2ccc(Nc3cc(-c4[nH]c(SC)nc4C)ccn3)cc2)c1`, for which the % of control in experiment [2] (at 1 µM) turned out to be 86%; in experiment [2] (at 5 µM), 81%; in experiment [3] (at 1 µM), 99%; in experiment [3] (at 5 µM), 81%.

For the molecule `COc1cc(Nc2nc(C)cc(-c3cnn4nc(OC)ccc34)n2)cc(C(F)(F)F)c1`, the % of control in experiment [4] was found to be 100%. Turning to `CN(C)CCOc1ccc(-c2nc(-c3ccncc3)c(-c3ccc4c(c3)CC/C4=N\O)[nH]2)cc1`, the % of control came to 81% in [5] and 100% in [6]. On to `CC[C@@H]1[C@H](F)C(=O)N[C@@H]1COc1nccc2cc(C(N)=O)c(OC)cc12` [ZIMLOVISERTIB], for which the % of inhibition turned out to be 0.984% in [7] and 0.9% in [8]. `COc1cc(N(C)c2ccnc3ccc(C(F)(F)F)cc23)cc(OC)c1OC` gave a % binding in experiment [9] of 100%. Turning to `COCC(=O)NC/C=C/c1ccc2ncnc(Nc3ccc(Oc4ccc(C)nc4)c(C)c3)c2c1` [CP-724714], the % of control in experiment [10] came to 59%.
